# Laboratory results: ChEMBL document CHEMBL1127703, “Structural requirements for respiratory inhibition by rotenoids; is an intact B/C ring system essential?” (Bioorg Med Chem Lett, 1994)
# Test: Tested for the ability to block NADH dehydrogenase in a preparation of submitochondrial particles obtained from blow fly flight muscle
# Format: tissue-based, Calliphoridae, Muscle tissue
row,-Log IC50,Structure (SMILES)
1,7.82,C=C(C)[C@H]1Cc2cc(C(=O)n3c(C)nc4ccccc43)ccc2O1
2,6.82,C=C(C)[C@H]1Cc2c(ccc(Cn3c(C)nc4ccccc43)c2OC)O1
3,6.6,C=C(C)[C@H]1Cc2c(ccc(C(=O)n3c(C)nc4ccccc43)c2OC)O1
4,7.9,COc1ccc(CC2NCCc3cc4c(cc32)C[C@H](C(C)CSc2ccccc2)O4)cc1OC (some centres not stated)
5,6.76,C=C(C)[C@H]1Cc2cc3c(cc2O1)CCNC3Cc1ccc(OC)c(OC)c1 (some centres not stated)
6,7.3,C=C(C)[C@H]1Cc2cc(Cn3c(C)nc4ccccc43)ccc2O1

row,Structure (SMILES),-Log IC50
1,C=C(C)[C@H]1Cc2c(ccc3c2O[C@@H]2COc4cc(OC)c(OC)cc4[C@@H]2C3=O)O1 [ROTENONE],8.7
